{"source": "paper PMC2879341", "about": "(Chembiochem : a European journal of chemical biology, 2009)", "target": "T1, GilR (Streptomyces griseoflavus, UniProt Q7X2G7)", "T1 sequence (Q7X2G7 1-498)": "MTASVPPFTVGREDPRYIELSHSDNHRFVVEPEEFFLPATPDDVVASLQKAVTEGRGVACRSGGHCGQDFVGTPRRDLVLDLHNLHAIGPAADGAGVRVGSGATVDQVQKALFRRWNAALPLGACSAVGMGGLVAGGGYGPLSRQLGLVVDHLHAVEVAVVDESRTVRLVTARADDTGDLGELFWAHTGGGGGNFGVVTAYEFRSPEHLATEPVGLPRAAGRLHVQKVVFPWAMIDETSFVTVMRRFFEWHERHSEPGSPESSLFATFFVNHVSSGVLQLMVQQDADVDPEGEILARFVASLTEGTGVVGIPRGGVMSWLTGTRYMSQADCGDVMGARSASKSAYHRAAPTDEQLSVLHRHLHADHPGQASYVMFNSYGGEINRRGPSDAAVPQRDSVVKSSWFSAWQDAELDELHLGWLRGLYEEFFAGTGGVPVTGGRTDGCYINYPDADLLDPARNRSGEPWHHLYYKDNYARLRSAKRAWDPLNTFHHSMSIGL", "experiment": "UV spectrum of purified protein", "format": "binding", "conditions": "covalent", "data": [{"smiles": "Cc1cc2nc3c(=O)[nH]c(=O)nc-3n(C[C@H](O)[C@H](O)[C@H](O)COP(=O)(O)OP(=O)(O)OC[C@H]3O[C@@H](n4cnc5c(N)ncnc54)[C@H](O)[C@@H]3O)c2cc1C", "note": "[FAD]", "values": [{"measurement": "UV spectrum of purified protein; further analysis in supplement", "value": "FAD in fact is covalently bound to the enzyme (see the Supporting Information)"}]}]}
